Assay results: ChEMBL document CHEMBL4334511, “Trivirensols: Selectively Bacteriostatic Sesquiterpene Trimers from the Australian Termite Nest-Derived Fungus Trichoderma virens CMB-TN16” (J Nat Prod, 2019)
Activity calls are given as the source filed them. The calls are words filed in the database; no cut-off is given here.

How the values were obtained:
[1] = tested on: Pseudomonas aeruginosa; test: Antibacterial activity against VIM producing Pseudomonas aeruginosa SA-EP-KFUH-40 assessed as reduction in […] growth at 0.01 to 30 uM incubated for 24 hrs by spectrophotometry based broth microdilution assay; format: functional, organism-based
[2] = tested on: Bacillus subtilis; test: Antibacterial activity against Bacillus subtilis ATCC 6633 assessed as reduction in […] growth at 0.01 to 30 uM incubated for 24 hrs by spectrophotometry based broth microdilution assay; format: functional, organism-based
[3] = tested on: Candida albicans; test: Antifungal activity against Candida albicans ATCC 90028 assessed as reduction in fungal growth at 0.01 to 30 uM incubated for 24 hrs by spectrophotometry based broth microdilution assay; format: functional, organism-based
[4] = tested on: Enterococcus faecalis; test: Antibacterial activity against vancomycin-resistant Enterococcus faecalis AUS-RBWH-VRE-01 assessed as fold reduction in growth by measuring colony formation unit at 30 uM incubated for 24 hrs by time kill assay; format: functional
[5] = tested on: Klebsiella pneumoniae; test: Antibacterial activity against NDM-producing Klebsiella pneumoniae SA-Rd-KAMC-037 assessed as reduction in […] growth at 0.01 to 30 uM incubated for 24 hrs by spectrophotometry based broth microdilution assay; format: functional, organism-based
[6] = tested on: Staphylococcus aureus; test: Antibacterial activity against Staphylococcus aureus ATCC 9144 assessed as reduction in […] growth at 0.01 to 30 uM incubated for 24 hrs by spectrophotometry based broth microdilution assay; format: functional, organism-based
[7] = tested on: Staphylococcus aureus; test: Antibacterial activity against methicillin-resistant Staphylococcus aureus AUS-RBWH-MRSA-02 assessed as reduction in […] growth at 0.01 to 30 uM incubated for 24 hrs by spectrophotometry based broth microdilution assay; format: functional, organism-based
[8] = tested on: Escherichia coli; test: Antibacterial activity against Escherichia coli ATCC 11775 assessed as reduction in […] growth at 0.01 to 30 uM incubated for 24 hrs by spectrophotometry based broth microdilution assay; format: functional, organism-based
[9] = tested on: Pseudomonas aeruginosa; test: Antibacterial activity against IMP producing Pseudomonas aeruginosa UAE-DBI-ZMH-91 assessed as reduction in […] growth at 0.01 to 30 uM incubated for 24 hrs by spectrophotometry based broth microdilution assay; format: functional, organism-based
[10] = tested on: NCI-H460; test: Cytotoxicity against human NCI-H460 cells assessed as reduction in cell viability upto 30 uM incubated for 48 hrs by MTT assay; format: cell-based; settings: nci-h460, 48 h
[11] = tested on: Escherichia coli; test: Antibacterial activity against Escherichia coli KUW-kw-AmH-11 assessed as reduction in […] growth at 0.01 to 30 uM incubated for 24 hrs by spectrophotometry based broth microdilution assay; format: functional, organism-based
[12] = tested on: SW-620; test: Cytotoxicity against human SW620 cells assessed as reduction in cell viability upto 30 uM incubated for 48 hrs by MTT assay; format: cell-based; settings: sw-620, 48 h
[13] = tested on: Enterococcus faecalis; test: Antibacterial activity against vancomycin-resistant Enterococcus faecalis AUS-RBWH-VRE-01 assessed as reduction in […] growth incubated for 24 hrs by spectrophotometry based broth microdilution assay; format: functional, organism-based
[14] = tested on: Klebsiella pneumoniae; test: Antibacterial activity against OXA-48-producing Klebsiella pneumoniae SA-Rd-KAMC-014 assessed as reduction in […] growth at 0.01 to 30 uM incubated for 24 hrs by spectrophotometry based broth microdilution assay; format: functional, organism-based
[15] = tested on: Streptococcus pyogenes; test: Antibacterial activity against Streptococcus pyogenes ATCC 12344 assessed as reduction in […] growth at 0.01 to 30 uM incubated for 24 hrs by spectrophotometry based broth microdilution assay; format: functional, organism-based
[16] = tested on: Acinetobacter baumannii; test: Antibacterial activity against OXA-23-producing Acinetobacter baumannii SA-Rd-KAMC-083 assessed as reduction in […] growth at 0.01 to 30 uM incubated for 24 hrs by spectrophotometry based broth microdilution assay; format: functional, organism-based
[17] = Enterococcus faecalis, AUS-RBWH-VRE-01, 24 h, read-out: IC50

CC(C)[C@H]1CC[C@@](O)(COC(=O)C2=C[C@@H]3[C@@H](C(C)C)CC[C@@](O)(COC(=O)/C(=C/[C@H]4C5=C(CC[C@@H]4C(C)C)COC5=O)CO)[C@H]3C(=O)OC2)[C@H]2C(=O)OCC(C(=O)O)=C[C@H]12
Activity [1]: inactive | Activity [2]: inactive | Activity [3]: inactive | fold change (FC) [4]: 10000 | Activity [5]: inactive | Activity [6]: inactive | Activity [7]: inactive | Activity [8]: inactive | Activity [9]: inactive | Activity [10]: Non-Toxic | Activity [11]: inactive | Activity [12]: Non-Toxic | IC50 [13, 17]: 1.6 µM | Activity [14]: inactive | Activity [15]: inactive | Activity [16]: inactive

CC(C)[C@H]1CC[C@@](O)(COC(=O)/C(=C/[C@H]2C=C(CO)CC[C@@H]2C(C)C)CO)[C@H]2C(=O)OCC(C(=O)O)=C[C@H]12
Activity [1]: inactive | Activity [2]: inactive | Activity [3]: inactive | Activity [5]: inactive | Activity [6]: inactive | Activity [7]: inactive | Activity [8]: inactive | Activity [9]: inactive | Activity [10]: Non-Toxic | Activity [11]: inactive | Activity [12]: Non-Toxic | Activity [14]: inactive | Activity [15]: inactive | Activity [16]: inactive

CC(C)[C@H]1CC[C@@](O)(COC(=O)C2=C[C@@H]3[C@@H](C(C)C)CC[C@@](O)(COC(=O)/C(=C/[C@H]4C=C(CO)CC[C@@H]4C(C)C)CO)[C@H]3C(=O)OC2)[C@H]2C(=O)OCC(C(=O)O)=C[C@H]12
Activity [1]: inactive | Activity [2]: inactive | Activity [3]: inactive | Activity [5]: inactive | Activity [6]: inactive | Activity [7]: inactive | Activity [8]: inactive | Activity [9]: inactive | Activity [10]: Non-Toxic | Activity [11]: inactive | Activity [12]: Non-Toxic | IC50 [13]: Not Active | Activity [14]: inactive | Activity [15]: inactive | Activity [16]: inactive

CC(C)[C@H]1CC[C@@](O)(COC(=O)/C(=C/[C@@H]2[C@@H](C(C)C)CC[C@@](O)(COC(=O)/C(=C/[C@H]3C4=C(CC[C@@H]3C(C)C)COC4=O)CO)[C@H]2C(=O)O)CO)[C@H]2C(=O)OCC(C(=O)O)=C[C@H]12
Activity [1]: inactive | Activity [2]: inactive | Activity [3]: inactive | fold change (FC) [4]: 10000 | Activity [5]: inactive | Activity [6]: inactive | Activity [7]: inactive | Activity [8]: inactive | Activity [9]: inactive | Activity [10]: Non-Toxic | Activity [11]: inactive | Activity [12]: Non-Toxic | IC50 [13, 17]: 1 µM | Activity [14]: inactive | Activity [15]: inactive | Activity [16]: inactive

CC(C)[C@H]1CC[C@@](O)(COC(=O)/C(=C/[C@H]2C=C(CO)CC[C@@H]2C(C)C)CO)[C@H]2C(=O)OCC(C(=O)O[C@@]34CC[C@H](C(C)C)[C@@H](/C=C(\CO)C(=O)O)[C@@H]3C(=O)OC4)=C[C@H]12
Activity [1]: inactive | Activity [2]: inactive | Activity [3]: inactive | Activity [5]: inactive | Activity [6]: inactive | Activity [7]: inactive | Activity [8]: inactive | Activity [9]: inactive | Activity [10]: Non-Toxic | Activity [11]: inactive | Activity [12]: Non-Toxic | IC50 [13]: Not Active | Activity [14]: inactive | Activity [15]: inactive | Activity [16]: inactive

CN[C@H](CC(C)C)C(=O)N[C@H]1C(=O)N[C@@H](CC(N)=O)C(=O)N[C@H]2C(=O)N[C@H]3C(=O)N[C@H](C(=O)N[C@H](C(=O)O)c4cc(O)cc(O)c4-c4cc3ccc4O)[C@H](O)c3ccc(c(Cl)c3)Oc3cc2cc(c3O[C@@H]2O[C@H](CO)[C@@H](O)[C@H](O)[C@H]2O[C@H]2C[C@](C)(N)[C@H](O)[C@H](C)O2)Oc2ccc(cc2Cl)[C@H]1O [VANCOMYCIN]
fold change (FC) [4]: 100

CC(C)[C@H]1CC[C@@](O)(COC(=O)/C(=C/[C@@H]2[C@@H](C(C)C)CC[C@@]3(OC(=O)/C(=C/[C@H]4C=C(CO)CC[C@@H]4C(C)C)CO)COC(=O)[C@@H]23)CO)[C@H]2C(=O)OCC(C(=O)O)=C[C@H]12
Activity [1]: inactive | Activity [2]: inactive | Activity [3]: inactive | Activity [5]: inactive | Activity [6]: inactive | Activity [7]: inactive | Activity [8]: inactive | Activity [9]: inactive | Activity [10]: Non-Toxic | Activity [11]: inactive | Activity [12]: Non-Toxic | IC50 [13]: Not Active | Activity [14]: inactive | Activity [15]: inactive | Activity [16]: inactive

CC(C)[C@H]1CC[C@@](O)(COC(=O)/C(=C/[C@H]2C3=C(CC[C@@H]2C(C)C)COC3=O)CO)[C@H]2C(=O)OCC(C(=O)O)=C[C@H]12
Activity [1]: inactive | Activity [2]: inactive | Activity [3]: inactive | Activity [4]: Active | Activity [5]: inactive | Activity [6]: inactive | Activity [7]: inactive | Activity [8]: inactive | Activity [9]: inactive | Activity [10]: Non-Toxic | Activity [11]: inactive | Activity [12]: Non-Toxic | Activity [14]: inactive | Activity [15]: inactive | Activity [16]: inactive

CC(C)[C@H]1CC[C@@](O)(COC(=O)/C(=C/[C@H]2C3=C(CC[C@@H]2C(C)C)COC3=O)CO)[C@@H](C(=O)O)[C@@H]1/C=C(\CO)C(=O)O
Activity [1]: inactive | Activity [2]: inactive | Activity [3]: inactive | Activity [4]: Active | Activity [5]: inactive | Activity [6]: inactive | Activity [7]: inactive | Activity [8]: inactive | Activity [9]: inactive | Activity [10]: Non-Toxic | Activity [11]: inactive | Activity [12]: Non-Toxic | Activity [14]: inactive | Activity [15]: inactive | Activity [16]: inactive

CC(C)[C@H]1CC[C@@]2(OC(=O)/C(=C/[C@H]3C=C(CO)CC[C@@H]3C(C)C)CO)COC(=O)[C@H]2[C@@H]1/C=C(\CO)C(=O)O
Activity [1]: inactive | Activity [2]: inactive | Activity [3]: inactive | Activity [5]: inactive | Activity [6]: inactive | Activity [7]: inactive | Activity [8]: inactive | Activity [9]: inactive | Activity [10]: Non-Toxic | Activity [11]: inactive | Activity [12]: Non-Toxic | Activity [14]: inactive | Activity [15]: inactive | Activity [16]: inactive

CC(C)[C@H]1CC[C@@]2(OC(=O)/C(=C/[C@H]3C4=C(CC[C@@H]3C(C)C)COC4=O)CO)COC(=O)[C@H]2[C@@H]1/C=C(\CO)C(=O)O
Activity [1]: inactive | Activity [2]: inactive | Activity [3]: inactive | Activity [5]: inactive | Activity [6]: inactive | Activity [7]: inactive | Activity [8]: inactive | Activity [9]: inactive | Activity [10]: Non-Toxic | Activity [11]: inactive | Activity [12]: Non-Toxic | Activity [14]: inactive | Activity [15]: inactive | Activity [16]: inactive

CC(C)[C@H]1CC[C@@](O)(COC(=O)C2=C[C@H]3[C@@H](OC2)[C@H](CO)CC[C@@H]3C(C)C)[C@H]2C(=O)OCC(C(=O)O)=C[C@H]12
Activity [1]: inactive | Activity [2]: inactive | Activity [3]: inactive | Activity [5]: inactive | Activity [6]: inactive | Activity [7]: inactive | Activity [8]: inactive | Activity [9]: inactive | Activity [10]: Non-Toxic | Activity [11]: inactive | Activity [12]: Non-Toxic | Activity [14]: inactive | Activity [15]: inactive | Activity [16]: inactive
